Assay results from ChEMBL document CHEMBL5107998, “Structure-Activity relationship of 1-(Furan-2ylmethyl)Pyrrolidine-Based Stimulation-2 (ST2) inhibitors for treating graft versus host disease” (Bioorg Med Chem, 2022).
Activity calls are given as the source filed them. The rule behind the calls is not given here.

Experiments:
[1] = Inhibition of ST2/IL-33 (unknown origin) interaction incubated for 1 hr by AlphaLISA assay; set-up: species or system Homo sapiens
[2] = Reduction in expansion of C57BL/6 mouse tolerogenic CD4-positive […] regulatory T cells at 1 to 10 uM incubated for 7 days in presence of T cell-depleted and irradiated splenocytes from allogeneic C3H.SW mouse by mixed lymphocyte reaction assay relative to control; type: functional; set-up: scale not given: the % may be the effect or the level left; conditions: dose 1-10 µM, time 7 day
[3] = Cytotoxicity against HEK-Blue IL-33 cells assessed as reduction in cell viability at upto 333 uM incubated for 20 hrs by CellTiter 96 aqueous one solution cell proliferation assay; type: toxicity, cell-based; conditions: human, hek-blue il-33, 20 h
[4] = Metabolic stability in pooled human liver microsomes assessed as half life at 1 uM incubated for 60 mins in presence of NADPH by LC-MS/MS analysis; type: ADME, Microsome
[5] = Metabolic stability in pooled CD-1 mouse liver microsomes assessed as half life at 1 uM incubated for 60 mins in presence of NADPH by LC-MS/MS analysis; type: ADME, Microsome
[6] = Inhibition of ST2/IL-33 (unknown origin) interaction in HEK-Blue IL-33 cells assessed as reduction in NF-kapaB activation by measuring SEAP reporter level incubated for 20 hrs by QUANTI-Blue reagent based assay; type: cell-based; conditions: Homo sapiens, HEK-Blue IL-33, 20 h
[7] = Half life in CD-1 mouse at 40 mg/kg, ip measured for 7 hrs by LC-MS/MS analysis; type: ADME, organism-based; conditions: in vivo
CD8-positive T cell = assay: Inhibition of cell proliferation in C57BL/6 mouse spleen CD8-positive T cells at 1 to 10 uM incubated for 7 days in presence of T cell-depleted and irradiated splenocytes from allogeneic C3H.SW mouse by mixed lymphocyte reaction assay; type: functional, cell-based; conditions: dose 1-10 µM, time 7.0 day
T-cell = assay: Induction of expansion of C57BL/6 mouse tolerogenic CD4-positive […] regulatory T cells incubated for 7 days in presence of T cell-depleted and irradiated splenocytes from allogeneic C3H.SW mouse by mixed lymphocyte reaction assay; type: functional, cell-based; conditions: dose 1-10 µM, time 7.0 day, DDE = dose-dependent effect
CD4+ve Th = assay: Inhibition of cell proliferation in C57BL/6 mouse spleen CD4-positive T cells at 1 to 10 uM incubated for 7 days in presence of T cell-depleted and irradiated splenocytes from allogeneic C3H.SW mouse by mixed lymphocyte reaction assay; type: functional, cell-based; conditions: dose 1-10 µM, time 7.0 day

Row | IC50 [1] [µM] | IC50 [6] [µM] | Compound | further results
1 | 29.4 | – | O=[N+]([O-])c1ccccc1-c1ccc(CN2CCCC2c2ccc3c(c2)OCCO3)o1 (centres undefined) | –
2 | 22.1 | – | COc1ccc(C2CCCN2Cc2ccc(-c3ccc([N+](=O)[O-])cc3)o2)cc1 (centres undefined) | –
3 | 80.9 | – | O=C(O)c1ccc(C2CCCN2Cc2ccc(-c3ccccc3[N+](=O)[O-])o2)cc1 (centres undefined) | Activity [2]: 10%
4 | 23.4 | – | COc1ccccc1C1CCCN1Cc1ccc(-c2ccccc2[N+](=O)[O-])o1 (centres undefined) | –
5 | 35.4 | – | COc1ccc(C2CCCN2Cc2ccc(-c3cccc([N+](=O)[O-])c3)o2)cc1 (centres undefined) | –
6 | 20.6 | – | COC(=O)c1ccc(C2CCCN2Cc2ccc(-c3ccccc3[N+](=O)[O-])o2)cc1 (centres undefined) | –
7 | 12.9 | 62 | O=[N+]([O-])c1ccccc1-c1ccc(CN2CCCC2c2ccc(N3CCCC3)cc2)o1 (centres undefined) | Activity [3]: Non-Toxic; half-life at 1 µM [4]: 10.1 min; half-life at 1 µM [5]: 2.67 min
8 | 5.46 | 44.7 | CN(C)c1cccc(C2CCCN2Cc2ccc(-c3ccccc3[N+](=O)[O-])o2)c1 (centres undefined) | half-life at 1 µM [4]: 0.57 min; half-life at 1 µM [5]: 0.78 min
9 | 26.7 | – | COc1cccc(C2CCCN2Cc2ccc(-c3ccccc3[N+](=O)[O-])o2)c1 (centres undefined) | –
10 | 7.14 | – | O=[N+]([O-])c1ccccc1-c1ccc(CN2CCCC2c2cccc(N3CCCCC3)c2)o1 (centres undefined) | –
11 | 12.3 | 48.5 | COc1ccc(-c2ccc(CN3CCCC3c3ccc(N(C)C)cc3)o2)c([N+](=O)[O-])c1 (centres undefined) | Activity [3]: Non-Toxic
12 | 21.5 | 53.8 | O=[N+]([O-])c1ccccc1-c1ccc(CN2CCCC2c2ccc(N3CCCCC3)cc2)o1 (centres undefined) | half-life at 1 µM [4]: 1.95 min; half-life at 1 µM [5]: 1.29 min
13 | 53 | – | COC(=O)Cc1cccc(C2CCCN2Cc2ccc(-c3ccccc3[N+](=O)[O-])o2)c1 (centres undefined) | –
14 | 46.6 | 56.4 | COc1ccc(C2CCCN2Cc2ccc(-c3ccccc3[N+](=O)[O-])o2)cc1 (centres undefined) | t1/2 [7]: 85.8 min; half-life at 1 µM [4]: 1.1 min; half-life at 1 µM [5]: 0.73 min
15 | 116 | – | COc1ccc(C2CCCN2Cc2ccc(-c3ccccc3C#N)o2)cc1 (centres undefined) | –
16 | 9.11 | 41.4 | Cc1ccc(-c2ccc(CN3CCCC3c3ccc(N(C)C)cc3)o2)c([N+](=O)[O-])c1 (centres undefined) | Activity [3]: Non-Toxic

Row | IC50 [1] [µM] | IC50 [6] [µM] | Compound | further results
17 | 7.73 | 42.5 | Cc1cc([N+](=O)[O-])ccc1-c1ccc(CN2CCCC2c2ccc(N(C)C)cc2)o1 (centres undefined) | t1/2 [7]: 92.4 min; half-life at 1 µM [4]: 13.7 min; half-life at 1 µM [5]: 3.64 min
18 | 6.42 | 85.3 | O=[N+]([O-])c1ccccc1-c1ccc(CN2CCCC2c2cccc(N3CCCC3)c2)o1 (centres undefined) | half-life at 1 µM [4]: 2.27 min; half-life at 1 µM [5]: 5.61 min
19 | 8.11 | 53.1 | Cc1cc([N+](=O)[O-])ccc1-c1ccc(CN2CCC[C@@H]2c2ccc(N(C)C)cc2)o1 | –
20 | 54.3 | – | CN(C)Cc1cccc(C2CCCN2Cc2ccc(-c3ccccc3[N+](=O)[O-])o2)c1 (centres undefined) | –
21 | 19.6 | 33.3 | CN(C)c1ccc(C2CCCN2Cc2ccc(-c3ccccc3[N+](=O)[O-])o2)cc1 (centres undefined) | inhibition (CD8-positive T cell): Active; Activity (T-cell): Dde; t1/2 [7]: 224 min; Activity [3]: Non-Toxic; half-life at 1 µM [4]: 2.54 min; half-life at 1 µM [5]: 0.95 min; inhibition (CD4+ve Th): Active
22 | 167 | – | COc1ccc(C2CCCN2Cc2ccc(-c3ccccc3C(N)=O)o2)cc1 (centres undefined) | –
23 | 10.4 | 56.4 | COc1ccc(-c2ccc(CN3CCC[C@@H]3c3ccc(N(C)C)cc3)o2)c([N+](=O)[O-])c1 | –
24 | 6.31 | 42.5 | Cc1cc([N+](=O)[O-])ccc1-c1ccc(CN2CCC[C@H]2c2ccc(N(C)C)cc2)o1 | –
25 | 115 | – | COc1ccc(C2CCCN2Cc2ccc(-c3ccccc3F)o2)cc1 (centres undefined) | –
26 | 6.12 | – | Cc1cc([N+](=O)[O-])ccc1-c1ccc(CN2CCCC2c2cccc(N(C)C)c2)o1 (centres undefined) | half-life at 1 µM [4]: 4.7 min; half-life at 1 µM [5]: 4.2 min
27 | 8.06 | 39.1 | Cc1ccc([N+](=O)[O-])c(-c2ccc(CN3CCCC3c3ccc(N(C)C)cc3)o2)c1 (centres undefined) | Activity [3]: Non-Toxic; half-life at 1 µM [5]: 0.89 min
28 | 6.6 | 30.6 | COc1ccc(-c2ccc(CN3CCC[C@H]3c3ccc(N(C)C)cc3)o2)c([N+](=O)[O-])c1 | –
29 | 21.2 | – | CN(C)c1ccc(C2CCCN2Cc2ccc(-c3ccc(Cl)cc3[N+](=O)[O-])o2)cc1 (centres undefined) | –
30 | 220 | – | COc1ccc(C2CCCN2Cc2ccc(-c3ccccc3C(=O)O)o2)cc1 (centres undefined) | –
31 | 97.6 | – | O=[N+]([O-])c1ccccc1-c1ccc(CN2CCCC2c2ccccc2)o1 (centres undefined) | –
